Results from patent US20150252048A1, “SUBSTITUTED N-(3-PYRIMIDIN-4-YL)PHENYL)ACRYLAMIDE ANALOGS AS TYROSINE RECEPTOR KINASE BTK INHIBITORS” (UNIVERSITY OF UTAH RESEARCH FOUNDATION, priority 2012, published 2015).

Legend:
451 kinase types = test: KINOMEscan Assay Panel broad kinase screen; type: binding, human; conditions: screen against 451 kinase types
Protocol: The kinase selectivity of a representative disclosed compound, compound 3 (N-(3-(6-((3-morpholinophenyl)amino)-1H-pyrazolo[3,4-d]pyrimidin-4-yl)phenyl)acrylamide), which corresponds to compound 3 in Table I, was evaluated in multiple kinase assays. A broad based screen was conducted against 451 kinase types using the KINOMEscan Assay Panel. The results were able to map 14 interactions with an S-Score(35)=0.03. The interactions are highlighted in FIG. 4 (panels A and B), and are indicated by the dark circles in the figure.

BMX/ETK = molecular target: T1, BMX/ETK (Homo sapiens, UniProt P51813); test: Specific kinase IC50 assay; type: biochemical; conditions: 1 μM ATP, 10-dose, duplicate
T1 sequence (P51813 1-675): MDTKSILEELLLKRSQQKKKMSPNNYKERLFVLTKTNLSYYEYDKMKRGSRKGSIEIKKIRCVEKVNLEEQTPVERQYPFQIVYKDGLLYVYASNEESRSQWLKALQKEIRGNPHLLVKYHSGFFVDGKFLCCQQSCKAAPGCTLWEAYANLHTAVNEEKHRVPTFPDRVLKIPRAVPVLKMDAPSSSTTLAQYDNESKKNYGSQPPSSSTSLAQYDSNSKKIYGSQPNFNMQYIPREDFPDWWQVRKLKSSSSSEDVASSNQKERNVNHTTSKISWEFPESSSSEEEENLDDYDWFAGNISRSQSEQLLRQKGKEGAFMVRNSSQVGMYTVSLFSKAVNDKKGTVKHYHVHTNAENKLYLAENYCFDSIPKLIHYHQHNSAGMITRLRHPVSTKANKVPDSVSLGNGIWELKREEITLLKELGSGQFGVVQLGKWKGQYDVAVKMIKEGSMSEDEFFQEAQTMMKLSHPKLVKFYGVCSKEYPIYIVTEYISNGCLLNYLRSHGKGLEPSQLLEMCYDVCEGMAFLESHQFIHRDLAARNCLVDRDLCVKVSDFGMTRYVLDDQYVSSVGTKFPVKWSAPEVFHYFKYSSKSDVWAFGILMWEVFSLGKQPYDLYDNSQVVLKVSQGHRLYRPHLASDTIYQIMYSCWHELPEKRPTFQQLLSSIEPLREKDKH
Protocol: (§1) The assays were carried out in the presence of 1 μM ATP and were conducted in a 10-dose format in duplicate with three-fold serial dilutions starting at 10 μM.

EGFR (T790M) = EGFR (T790M) (Homo sapiens, UniProt P00533, T790M); test: Specific kinase IC50 assay; type: biochemical; conditions: 1 μM ATP, 10-dose, duplicate
Protocol: as §1

ERBB4/HER4 = ERBB4/HER4 (Homo sapiens, UniProt Q15303); test: Specific kinase IC50 assay; type: biochemical; conditions: 1 μM ATP, 10-dose, duplicate
Protocol: as §1

TEC = molecular target: T2, TEC (Homo sapiens, UniProt P42680); test: Specific kinase IC50 assay; type: biochemical; conditions: 1 μM ATP, 10-dose, duplicate
T2 sequence (P42680 1-631): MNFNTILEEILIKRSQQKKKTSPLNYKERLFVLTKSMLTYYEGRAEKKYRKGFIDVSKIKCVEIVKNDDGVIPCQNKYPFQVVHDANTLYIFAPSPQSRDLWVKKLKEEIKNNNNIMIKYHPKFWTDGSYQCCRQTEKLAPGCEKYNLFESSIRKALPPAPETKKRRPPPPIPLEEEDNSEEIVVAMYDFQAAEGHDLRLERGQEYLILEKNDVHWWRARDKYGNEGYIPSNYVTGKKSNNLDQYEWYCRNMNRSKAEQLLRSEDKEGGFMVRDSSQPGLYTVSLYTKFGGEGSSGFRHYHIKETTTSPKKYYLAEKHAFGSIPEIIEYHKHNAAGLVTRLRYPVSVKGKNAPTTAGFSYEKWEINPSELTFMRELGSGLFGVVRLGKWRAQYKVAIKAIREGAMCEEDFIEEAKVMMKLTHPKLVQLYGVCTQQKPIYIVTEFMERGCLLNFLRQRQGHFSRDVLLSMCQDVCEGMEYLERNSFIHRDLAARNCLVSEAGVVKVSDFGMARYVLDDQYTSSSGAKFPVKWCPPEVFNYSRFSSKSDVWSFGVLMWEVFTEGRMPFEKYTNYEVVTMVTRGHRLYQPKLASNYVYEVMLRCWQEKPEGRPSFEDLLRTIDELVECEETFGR
Protocol: as §1

BTK = BTK (Homo sapiens, UniProt Q06187); test: BTK kinase assay: time resolved-FRET (HTRF) assay; type: biochemical; set-up: recombinant full-length human BTK kinase with a (His)6 tag; (His)6; purchased Invitrogen Corporation, Carlsbad, Calif; conditions: 10 nM BTK, 60 μM ATP, 1 μM substrate
Protocol: Activity of compounds was routinely confirmed using a secondary assay as described herein. The secondary assay was a time resolved-FRET kinase assay. Test compound are diluted to desired concentrations in kinase reaction buffer and briefly incubated with BTK kinase (as described above; Invitrogen). The reaction is initiated by the addition of ATP and enzyme substrate, HTRF® KinEASE™-TK Substrate-biotin (Cisbio US, Bedford, Mass.). The composition of the reaction (10 μl) was: 1% v/v DMSO, 10 nM BTK, 60 μM ATP, and 1 μM substrate. After incubation at room temperature for 60 min, the enzyme reaction is stopped by EDTA-containing buffer, which also contains europium-labeled (Eu^3+-Cryptate) anti-phosphotyrosine antibody (Cisbio) and Streptavidin-XL665 (Cisbio). The europium-labeled antibody generates a time-resolved FRET signal with the Stepavidin-XL665, which binds to the biotinylated TK substrate through the streptavidin conjugate when the substrate is phosphorylated. After one hour incubation at room temperature, fluoresence was measured with excitation of 320 nm and dual emission of 615 and 665 nm on an EnVision microplate reader. Signal is expressed in terms of a TR-FRET ratio (665:615).
IC50 values are determined using GraphPad Prism 5 software. The data were entered as an X-Y plot into the software as percent inhibition for each concentration of the drug. The concentration values of the drug were log transformed and the nonlinear regression was carried out using the “sigmoidal dose-response (variable slope)” option within the GraphPad software to model the data and calculate IC50 values. The IC50 values reported are the concentration of drug at which 50% inhibition was reached.
Activity (IC50) was determined in the BTK assays describe herein below, i.e. either the ADP generation assay and/or the time-resolved FRET assay, and the data are shown in Table III. The compound number corresponds to the compound numbers used in Table I. In the table below, “ADP Assay” refers to the assay which measures production of ADP resulting from use of ATP by the kinase; and “HTRF Assay” refers to the time resolved-FRET kinase assay described in the examples. Multiple values in a given column indicate the results of more than one assay for the given compound. Representative data of the type used to determine the IC50 values for the ADP assay in Table III are shown in FIG. 8 for compounds 3, 4, and 5.

EGFR (T790M), sequence (P00533 25-1210 T790M, species assumed): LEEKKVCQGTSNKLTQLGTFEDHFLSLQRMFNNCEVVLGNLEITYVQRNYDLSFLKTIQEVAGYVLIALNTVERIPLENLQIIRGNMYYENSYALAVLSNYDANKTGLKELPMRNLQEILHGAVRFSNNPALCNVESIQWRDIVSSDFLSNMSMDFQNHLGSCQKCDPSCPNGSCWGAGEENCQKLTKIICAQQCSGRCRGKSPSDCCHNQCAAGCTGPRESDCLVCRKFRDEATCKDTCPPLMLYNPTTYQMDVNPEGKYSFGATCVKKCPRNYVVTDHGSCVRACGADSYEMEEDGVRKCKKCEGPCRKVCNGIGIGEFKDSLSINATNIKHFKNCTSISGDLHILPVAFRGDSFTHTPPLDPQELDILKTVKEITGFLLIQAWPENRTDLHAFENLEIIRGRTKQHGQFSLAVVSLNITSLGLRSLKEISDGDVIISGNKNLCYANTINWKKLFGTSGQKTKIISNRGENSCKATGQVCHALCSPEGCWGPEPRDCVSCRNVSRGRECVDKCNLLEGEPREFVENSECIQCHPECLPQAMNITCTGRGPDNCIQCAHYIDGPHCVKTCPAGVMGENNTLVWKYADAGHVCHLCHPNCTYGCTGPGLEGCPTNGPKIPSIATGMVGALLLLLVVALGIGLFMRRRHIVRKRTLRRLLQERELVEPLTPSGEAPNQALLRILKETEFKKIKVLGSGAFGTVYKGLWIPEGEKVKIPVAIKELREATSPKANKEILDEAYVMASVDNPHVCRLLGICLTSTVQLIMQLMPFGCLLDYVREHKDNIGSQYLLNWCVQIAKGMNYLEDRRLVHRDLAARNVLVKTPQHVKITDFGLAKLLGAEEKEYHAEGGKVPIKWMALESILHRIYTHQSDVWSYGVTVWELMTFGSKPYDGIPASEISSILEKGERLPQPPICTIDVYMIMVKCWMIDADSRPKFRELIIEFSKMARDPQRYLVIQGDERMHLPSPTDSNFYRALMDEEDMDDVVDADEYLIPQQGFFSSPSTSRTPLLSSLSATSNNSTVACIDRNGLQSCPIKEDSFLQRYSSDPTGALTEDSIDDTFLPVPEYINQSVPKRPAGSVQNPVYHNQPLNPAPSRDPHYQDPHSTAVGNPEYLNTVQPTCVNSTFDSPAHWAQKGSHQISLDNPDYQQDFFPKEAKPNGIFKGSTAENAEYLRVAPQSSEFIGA
ERBB4/HER4, sequence (Q15303 26-1308): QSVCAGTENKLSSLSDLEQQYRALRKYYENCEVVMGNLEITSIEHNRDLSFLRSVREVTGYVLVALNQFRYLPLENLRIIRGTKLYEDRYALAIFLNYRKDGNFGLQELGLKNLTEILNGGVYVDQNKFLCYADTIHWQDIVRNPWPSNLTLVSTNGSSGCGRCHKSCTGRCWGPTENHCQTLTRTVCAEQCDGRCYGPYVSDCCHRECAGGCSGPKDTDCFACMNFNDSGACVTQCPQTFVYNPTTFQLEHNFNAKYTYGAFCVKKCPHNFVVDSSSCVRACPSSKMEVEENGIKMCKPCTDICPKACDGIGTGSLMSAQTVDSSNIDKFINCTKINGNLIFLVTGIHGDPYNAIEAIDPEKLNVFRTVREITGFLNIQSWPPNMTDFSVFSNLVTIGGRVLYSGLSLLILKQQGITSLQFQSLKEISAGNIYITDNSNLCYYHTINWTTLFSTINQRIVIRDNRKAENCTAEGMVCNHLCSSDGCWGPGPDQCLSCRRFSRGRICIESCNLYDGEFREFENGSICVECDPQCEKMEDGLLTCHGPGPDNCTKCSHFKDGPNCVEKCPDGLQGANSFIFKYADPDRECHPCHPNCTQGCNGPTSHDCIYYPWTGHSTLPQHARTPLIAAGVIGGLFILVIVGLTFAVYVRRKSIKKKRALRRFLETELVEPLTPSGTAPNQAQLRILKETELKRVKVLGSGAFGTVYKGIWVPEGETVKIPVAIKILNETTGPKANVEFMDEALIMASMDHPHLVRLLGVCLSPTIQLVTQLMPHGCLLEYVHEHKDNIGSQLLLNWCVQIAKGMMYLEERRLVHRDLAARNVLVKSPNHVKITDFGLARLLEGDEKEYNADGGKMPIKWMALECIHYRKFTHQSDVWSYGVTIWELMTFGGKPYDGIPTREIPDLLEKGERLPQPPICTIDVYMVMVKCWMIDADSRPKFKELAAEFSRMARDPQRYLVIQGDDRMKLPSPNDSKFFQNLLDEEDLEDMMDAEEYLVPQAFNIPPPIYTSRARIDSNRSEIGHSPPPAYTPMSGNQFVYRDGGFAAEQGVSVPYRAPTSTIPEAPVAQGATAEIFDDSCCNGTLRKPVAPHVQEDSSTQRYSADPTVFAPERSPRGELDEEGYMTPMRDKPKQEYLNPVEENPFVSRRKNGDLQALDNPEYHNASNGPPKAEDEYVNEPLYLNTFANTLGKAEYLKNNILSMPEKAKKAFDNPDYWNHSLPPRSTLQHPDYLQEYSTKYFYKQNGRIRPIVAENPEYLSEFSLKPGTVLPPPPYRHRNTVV
BTK, sequence (Q06187 whole entry): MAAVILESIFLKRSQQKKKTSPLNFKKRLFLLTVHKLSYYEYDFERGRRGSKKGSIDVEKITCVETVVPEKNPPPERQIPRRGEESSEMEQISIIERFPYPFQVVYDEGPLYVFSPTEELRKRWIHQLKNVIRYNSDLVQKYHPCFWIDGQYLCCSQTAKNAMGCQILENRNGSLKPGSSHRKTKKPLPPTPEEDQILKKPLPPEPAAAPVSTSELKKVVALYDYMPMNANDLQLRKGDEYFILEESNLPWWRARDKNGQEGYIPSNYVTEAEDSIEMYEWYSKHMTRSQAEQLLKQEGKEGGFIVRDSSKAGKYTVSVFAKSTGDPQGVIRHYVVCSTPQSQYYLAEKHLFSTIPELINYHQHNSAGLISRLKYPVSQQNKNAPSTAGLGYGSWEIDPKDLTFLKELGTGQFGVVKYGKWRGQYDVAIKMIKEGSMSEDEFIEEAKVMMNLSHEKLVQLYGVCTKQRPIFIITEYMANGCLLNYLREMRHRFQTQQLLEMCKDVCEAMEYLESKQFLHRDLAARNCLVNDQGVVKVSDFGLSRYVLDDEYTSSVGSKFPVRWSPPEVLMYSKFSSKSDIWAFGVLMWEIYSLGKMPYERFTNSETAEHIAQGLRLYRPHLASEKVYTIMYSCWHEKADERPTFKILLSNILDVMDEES

Number of interactions mapped (451 kinase types): 14
S-Score(35) (451 kinase types): 0.03
IC50 (BMX/ETK): 0.00926 µM
IC50 (EGFR (T790M)): 0.979 µM
IC50 (ERBB4/HER4): 0.0175 µM
IC50 (TEC): 0.0502 µM
IC50 (BTK): 0.008 µM
SMILES: C=CC(=O)Nc1cccc(-c2nc(Nc3cccc(N4CCOCC4)c3)nc3[nH]ncc23)c1 [Compound 3, N-(3-(6-((3-morpholinophenyl)amino)-1H-pyrazolo[3,4-d]pyrimidin-4-yl)phenyl)acrylamide]
